In patent US20240360142A1, “Multitargeting Agents For The Potential Treatment of Dementia With Lewy Bodies, Parkinson's Disease, and Alzheimer Disease With Lewy Bodies” (Duquesne University of The Holy Spirit, priority 2023, published 2024):
Converted amounts (≈) assume the structure as drawn. “And” between values parts separate entries of the source, which are not always exact repeats. Identical values can stand only once. “Also recorded” adds a separate entry of the source. Like-named read-outs stand apart in the source and are kept apart here.

Key:
[1] = Metabolic Stability, Mouse; assay type: in vitro ADME; conditions: for half-life: read-out: Metabolic Stability T1/2
[2] = target: T1, tubulin purified from porcine brain (Sus scrofa, UniProt P02550+P02554); conditions: cited from earlier work
T1 construct: in vitro assembly of tubulin purified from porcine brain; from tissue; host or cells: porcine brain

[3] = target: FYN (Homo sapiens, UniProt P06241); test: Kinase inhibition, FYN; assay type: biochemical
From the text: (§1) Total inhibition of these kinases would be detrimental to neuronal viability.

[4] = Protein Binding, Human Plasma; assay type: in vitro ADME; conditions: read-out: Protein Binding % Bound (converted)
[5] = Permeability, MDC-MDR1; assay type: in vitro ADME; conditions: MDCK-MDR1
[6] = target: GRK6 (Homo sapiens, UniProt P43250); test: Kinase inhibition, GRK6; assay type: biochemical; conditions: ATP Km app 11.7 μM
From the text: as §1

[7] = in vivo; parameters: species or system male CD-1 mice; conditions: for clinical symptoms during pharmacokinetic work: mouse
Method: Briefly, each compound was administered through intravenous and oral routes, and plasma samplings were collected from 2 to 24 hours post-injection for analyses by high-performance liquid chromatography and mass spectrometry (Prominence (Degasser DGU-20A5R(C), Serial NO. L20705619752 IX; Liquid Chromatograph LC-30AD Serial NO. L20555611120 AE and L20555611116 AE; Communications Bus Module CBM-20A, Serial NO. L20235635001 CD, Auto SIL-20AC HT, Serial No. L20355305356 AE; Rack changer II, Serial No. L20585300757 SS; AB Sciex Triple Quan 5500 LC/MS/MS instrument (Serial NO. EF20711807)). A HALO 90A, C18 2.7 μm 2.1×50 mm USKL004340 column was used and the mobile phase was 5 or 95% acetonitrile in water with 0.1% formic acid (see Supplemental Material).

[8] = target: ABL1 (Homo sapiens, UniProt P00519); test: Kinase inhibition, ABL1; assay type: biochemical
From the text: as §1

[9] = target: GSK3β (Homo sapiens, UniProt P49841); test: Kinase inhibition, GSK3β; assay type: biochemical
From the text: as §1

[10] = Brain Tissue Binding, Mouse; assay type: in vitro ADME; conditions: read-out: Brain Tissue Binding % Bound (converted)
[11] = target: DYRK1A (Homo sapiens, UniProt Q13627); test: Kinase inhibition, DYRK1A; assay type: biochemical; conditions: ATP Km app 99.7 μM
From the text: as §1

[12] = target: GRK5 (Homo sapiens, UniProt P34947); test: Kinase inhibition, GRK5; assay type: biochemical; conditions: ATP Km app 3 μM
From the text: as §1

[13] = target: PLK2 (Homo sapiens, UniProt Q9NYY3); test: Kinase inhibition, PLK2; assay type: biochemical; conditions: ATP Km app 29.6 μM
From the text: as §1

[14] = target: CSNK1A1 (CK1 alpha 1) (Homo sapiens, UniProt P48729); test: Kinase inhibition, CSNK1A1; assay type: biochemical
From the text: as §1

[15] = target: LARK2 (Homo sapiens, UniProt Q5S007); test: Kinase inhibition, LARK2; assay type: biochemical; further: ATP Km app 70 µM
From the text: as §1

[16] = Solubility; assay type: physicochemical; conditions: simulated gastric fluid; pH 2.0
[17] = Protein Binding, Mouse Plasma; assay type: in vitro ADME; conditions: read-out: Protein Binding % Bound (converted)
[18] = Metabolic Stability, Human; assay type: in vitro ADME; conditions: for half-life: read-out: Metabolic Stability T1/2
[19] = target: CSNK2A2 (CK2 alpha 2) (Homo sapiens, UniProt P19784); test: Kinase inhibition, CSNK2A2; assay type: biochemical; conditions: ATP Km app 46 μM
From the text: as §1

[20] = system: male CD-1 mice infused with preformed α-synuclein fibrils; test: In vivo model of limbic-centered Lewy body disease (fibril infusion in OB/AON, daily tablets for six weeks); parameters: species or system mouse
[21] = system: βIII-tubulin+ structures in primary hippocampal neurons; test: Nocodazole shock treatment followed by cold methanol fixation, βIII-tubulin staining; assay type: cell-based, rat; conditions: AG161-47 8 μM; nocodazole 50 nM and 5 μM
Method: For cold methanol fixation, primary hippocampal cultures plated on glass slides were exposed to ice-cold methanol (−20° C.) for 15 minutes on DIV 4. […] After immunostaining, coverslips were applied using FluoroMount-G (0100-01, SouthernBiotech).
The microtubule destabilizer/depolymerizer and kinase inhibitor nocodazole blocks AG161-47 activity: We qualitatively compared AG161-47 with the established microtubule destabilizer/depolymerizer nocodazole (Baas & Black, 1990; Baas et al., 2016; Bates & Eastman, 2017; Kapellos et al., 2016; Koenigsknecht & Landreth, 2004; Kuhn, 1998; Mandrekar et al., 2009; Nakayama et al., 2012; Park et al., 2012), using a nocodazole shock treatment followed by cold methanol fixation in primary hippocampal cultures, as previously described (Ferreira et al., 2018; Warren et al., 2020). Primary hippocampal cultures were treated with vehicle or AG161-47 at 8 μM or nocodazole at 50 nM and 5 μM.

[22] = system: primary hippocampal cultures; test: Viability / toxicity in primary hippocampal cultures; assay type: cell-based
From the text: Thresholds were kept uniform across individual experiments.

[23] = system: microtubules in HeLa cells; conditions: cited from earlier work
[24] = system: α-tubulin (detyrosinated, tyrosinated, acetylated); test: Post-translational markers of microtubule stability in primary hippocampal cultures (immunoblotting); assay type: cell-based, rat; conditions: 5 nM nocodazole, in the presence of fibrils

ABL1, sequence (P00519 whole entry): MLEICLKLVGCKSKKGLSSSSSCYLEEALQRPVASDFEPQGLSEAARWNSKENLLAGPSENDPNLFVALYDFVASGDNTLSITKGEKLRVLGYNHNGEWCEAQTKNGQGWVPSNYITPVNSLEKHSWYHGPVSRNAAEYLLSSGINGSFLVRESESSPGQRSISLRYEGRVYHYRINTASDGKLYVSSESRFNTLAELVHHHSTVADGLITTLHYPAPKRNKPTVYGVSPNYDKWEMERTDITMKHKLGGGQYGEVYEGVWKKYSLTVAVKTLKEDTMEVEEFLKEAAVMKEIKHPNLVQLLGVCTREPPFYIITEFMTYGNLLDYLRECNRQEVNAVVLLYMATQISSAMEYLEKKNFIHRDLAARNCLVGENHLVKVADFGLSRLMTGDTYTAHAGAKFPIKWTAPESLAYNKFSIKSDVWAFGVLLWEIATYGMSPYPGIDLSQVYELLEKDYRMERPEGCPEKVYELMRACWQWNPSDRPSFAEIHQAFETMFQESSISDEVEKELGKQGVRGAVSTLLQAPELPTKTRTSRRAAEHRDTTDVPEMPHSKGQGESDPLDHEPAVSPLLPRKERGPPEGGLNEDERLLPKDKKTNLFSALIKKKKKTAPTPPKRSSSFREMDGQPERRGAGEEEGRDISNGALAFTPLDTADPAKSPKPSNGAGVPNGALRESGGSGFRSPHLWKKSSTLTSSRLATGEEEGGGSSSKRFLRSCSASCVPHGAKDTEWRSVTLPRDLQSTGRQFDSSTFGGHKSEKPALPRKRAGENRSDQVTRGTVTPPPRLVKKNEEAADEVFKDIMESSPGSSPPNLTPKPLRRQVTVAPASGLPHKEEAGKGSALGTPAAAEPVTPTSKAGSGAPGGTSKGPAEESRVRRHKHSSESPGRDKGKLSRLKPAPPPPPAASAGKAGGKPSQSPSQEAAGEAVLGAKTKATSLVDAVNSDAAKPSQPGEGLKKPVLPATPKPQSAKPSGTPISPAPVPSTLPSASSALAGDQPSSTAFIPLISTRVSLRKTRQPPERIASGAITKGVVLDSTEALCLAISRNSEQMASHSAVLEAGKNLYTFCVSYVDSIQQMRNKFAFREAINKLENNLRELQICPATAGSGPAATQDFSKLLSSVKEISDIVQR
FYN, sequence (P06241 whole entry): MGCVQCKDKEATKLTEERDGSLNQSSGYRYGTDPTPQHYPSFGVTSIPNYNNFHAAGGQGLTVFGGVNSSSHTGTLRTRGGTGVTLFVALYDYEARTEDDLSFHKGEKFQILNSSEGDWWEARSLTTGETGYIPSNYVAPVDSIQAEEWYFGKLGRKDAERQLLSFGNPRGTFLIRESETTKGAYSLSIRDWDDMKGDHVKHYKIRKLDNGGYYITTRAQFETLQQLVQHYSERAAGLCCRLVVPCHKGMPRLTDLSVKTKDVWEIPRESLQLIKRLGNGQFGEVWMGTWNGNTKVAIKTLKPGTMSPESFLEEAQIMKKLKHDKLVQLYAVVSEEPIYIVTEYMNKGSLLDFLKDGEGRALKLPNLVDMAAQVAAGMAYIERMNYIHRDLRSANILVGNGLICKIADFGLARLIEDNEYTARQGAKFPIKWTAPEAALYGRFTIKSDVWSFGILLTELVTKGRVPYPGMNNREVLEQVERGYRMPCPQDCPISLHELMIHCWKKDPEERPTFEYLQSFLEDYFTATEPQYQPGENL
CSNK1A1 (CK1 alpha 1), sequence (P48729 whole entry): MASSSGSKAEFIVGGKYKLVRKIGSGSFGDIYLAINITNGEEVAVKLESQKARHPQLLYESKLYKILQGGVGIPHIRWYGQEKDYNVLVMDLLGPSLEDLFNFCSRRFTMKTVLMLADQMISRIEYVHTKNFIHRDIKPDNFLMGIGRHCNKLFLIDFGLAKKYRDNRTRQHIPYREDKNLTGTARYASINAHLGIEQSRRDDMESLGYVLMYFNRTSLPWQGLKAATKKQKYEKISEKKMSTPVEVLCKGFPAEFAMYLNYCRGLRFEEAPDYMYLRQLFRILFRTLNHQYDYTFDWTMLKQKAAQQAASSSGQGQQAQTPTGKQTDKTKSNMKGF
PLK2, sequence (Q9NYY3 whole entry): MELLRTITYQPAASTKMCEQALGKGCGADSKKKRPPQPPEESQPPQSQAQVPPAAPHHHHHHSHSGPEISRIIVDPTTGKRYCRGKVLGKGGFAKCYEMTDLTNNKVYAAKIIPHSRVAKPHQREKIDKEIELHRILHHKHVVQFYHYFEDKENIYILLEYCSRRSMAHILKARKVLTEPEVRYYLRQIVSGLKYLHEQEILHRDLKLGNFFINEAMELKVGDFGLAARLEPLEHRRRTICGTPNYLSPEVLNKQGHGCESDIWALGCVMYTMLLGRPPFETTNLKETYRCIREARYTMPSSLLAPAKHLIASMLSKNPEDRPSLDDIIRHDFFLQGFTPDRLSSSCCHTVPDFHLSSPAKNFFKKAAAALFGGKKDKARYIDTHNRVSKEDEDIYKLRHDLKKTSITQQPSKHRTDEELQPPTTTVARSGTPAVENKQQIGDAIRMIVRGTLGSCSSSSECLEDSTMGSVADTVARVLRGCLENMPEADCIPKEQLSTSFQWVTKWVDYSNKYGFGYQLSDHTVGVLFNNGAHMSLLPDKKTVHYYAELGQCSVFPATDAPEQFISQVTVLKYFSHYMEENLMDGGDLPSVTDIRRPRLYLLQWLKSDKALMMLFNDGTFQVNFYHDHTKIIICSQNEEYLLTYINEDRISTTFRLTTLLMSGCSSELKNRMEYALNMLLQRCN
GRK6, sequence (P43250 whole entry): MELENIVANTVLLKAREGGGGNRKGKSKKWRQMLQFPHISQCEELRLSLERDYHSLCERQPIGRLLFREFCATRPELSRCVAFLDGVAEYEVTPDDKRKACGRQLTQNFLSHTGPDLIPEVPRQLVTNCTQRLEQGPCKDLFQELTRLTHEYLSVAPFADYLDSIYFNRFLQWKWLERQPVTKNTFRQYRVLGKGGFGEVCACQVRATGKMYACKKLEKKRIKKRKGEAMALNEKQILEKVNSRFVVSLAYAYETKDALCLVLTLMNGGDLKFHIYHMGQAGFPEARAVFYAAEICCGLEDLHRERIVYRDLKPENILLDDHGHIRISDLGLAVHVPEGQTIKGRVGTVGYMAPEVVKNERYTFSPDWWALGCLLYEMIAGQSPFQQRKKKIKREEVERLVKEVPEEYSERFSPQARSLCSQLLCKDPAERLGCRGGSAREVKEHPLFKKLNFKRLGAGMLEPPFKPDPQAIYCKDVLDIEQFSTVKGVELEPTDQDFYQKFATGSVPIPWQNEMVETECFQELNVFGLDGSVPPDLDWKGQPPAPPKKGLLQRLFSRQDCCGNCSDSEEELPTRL
GRK5, sequence (P34947 whole entry): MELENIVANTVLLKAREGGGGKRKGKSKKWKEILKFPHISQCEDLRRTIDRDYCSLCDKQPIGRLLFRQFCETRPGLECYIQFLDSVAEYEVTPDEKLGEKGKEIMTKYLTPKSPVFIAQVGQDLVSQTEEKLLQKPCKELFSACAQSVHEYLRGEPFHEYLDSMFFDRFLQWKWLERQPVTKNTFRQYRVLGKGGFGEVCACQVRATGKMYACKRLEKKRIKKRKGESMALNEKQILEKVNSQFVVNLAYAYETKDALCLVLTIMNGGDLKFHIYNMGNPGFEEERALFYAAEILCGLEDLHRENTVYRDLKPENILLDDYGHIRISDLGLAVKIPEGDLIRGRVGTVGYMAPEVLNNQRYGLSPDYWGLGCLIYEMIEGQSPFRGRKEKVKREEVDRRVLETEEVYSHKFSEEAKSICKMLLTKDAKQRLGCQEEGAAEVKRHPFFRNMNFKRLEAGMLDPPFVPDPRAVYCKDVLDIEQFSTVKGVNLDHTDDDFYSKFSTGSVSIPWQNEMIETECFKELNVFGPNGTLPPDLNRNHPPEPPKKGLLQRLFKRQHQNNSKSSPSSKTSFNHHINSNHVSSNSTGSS
CSNK2A2 (CK2 alpha 2), sequence (P19784 whole entry): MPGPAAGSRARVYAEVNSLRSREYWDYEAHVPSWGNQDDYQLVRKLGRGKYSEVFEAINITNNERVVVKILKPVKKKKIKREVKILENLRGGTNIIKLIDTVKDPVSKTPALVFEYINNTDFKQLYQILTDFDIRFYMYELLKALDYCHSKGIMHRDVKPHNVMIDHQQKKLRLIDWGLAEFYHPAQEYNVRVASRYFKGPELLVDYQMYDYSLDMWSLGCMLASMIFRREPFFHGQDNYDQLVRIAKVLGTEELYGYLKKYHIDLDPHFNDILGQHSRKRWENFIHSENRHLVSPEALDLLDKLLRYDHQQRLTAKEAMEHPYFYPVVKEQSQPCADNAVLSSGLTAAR
GSK3β, sequence (P49841 whole entry): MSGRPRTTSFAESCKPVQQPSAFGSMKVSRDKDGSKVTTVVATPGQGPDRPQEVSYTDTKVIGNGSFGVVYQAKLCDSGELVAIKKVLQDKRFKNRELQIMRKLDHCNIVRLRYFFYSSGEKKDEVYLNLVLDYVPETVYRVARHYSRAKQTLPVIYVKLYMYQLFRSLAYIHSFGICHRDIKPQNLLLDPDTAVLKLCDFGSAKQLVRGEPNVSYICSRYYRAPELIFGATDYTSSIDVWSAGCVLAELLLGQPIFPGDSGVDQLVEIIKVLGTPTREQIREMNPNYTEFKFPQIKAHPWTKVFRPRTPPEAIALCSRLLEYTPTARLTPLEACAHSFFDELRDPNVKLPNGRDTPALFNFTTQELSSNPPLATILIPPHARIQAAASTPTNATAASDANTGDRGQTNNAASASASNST

Compound: Cc1ccc(N(C)c2nc(N)nc3[nH]c4cccc(Cl)c4c23)cc1 [AGN5]
- CLint scaled [1]: 602 mL/min/kg
- half-life [1]: 10.1 min
- in vitro assembly of porcine brain tubulin [2]: accelerate the temporal kinetics of porcine brain tubulin in vitro assembly
- IC50 ([3]; ATP Km app 85 μM): 169 nM
- fraction unbound [4]: 0.0022
- Papp A→B [5]: 1.74 ×10⁻⁶ cm/s
- Papp B→A [5]: 2.98 ×10⁻⁶ cm/s
- IC50 [6]: 64.3 nM
- Kp ([7]; male, CD-1, mouse): 5.99
- Kp uu at 2 h ([7]; male, CD-1, mouse): 6
- C0 ([7]; male, CD-1, mouse, iv, 1 mg/kg): 811 ng/mL
- CIobs ([7]; male, CD-1, mouse, iv, 1 mg/kg): 49.5 mL/min/kg
- Vss_obs ([7]; male, CD-1, mouse, iv, 1 mg/kg): 3.24 L/kg
- half-life ([7]; male, CD-1, mouse, iv, 1 mg/kg): 93 min
- AUC(0-t) ([7]; male, CD-1, mouse, po, 1 mg/kg): 19.2 ng·h/mL
- Cmax ([7]; male, CD-1, mouse, po, 1 mg/kg): 14.7 ng/mL and 44 nM
- F ([7]; male, CD-1, mouse, po, 1 mg/kg): 6.35%
- Tmax ([7]; male, CD-1, mouse, po, 1 mg/kg): 30 min
- half-life ([7]; male, CD-1, mouse, po, 1 mg/kg): 46.8 min
- clinical symptoms during pharmacokinetic work [7]: no abnormal clinical symptoms were observed
- IC50 ([8]; ATP Km app 12 μM): 26.1 nM
- IC50 [9]: 3.12 nM
- fraction unbound [10]: 0.0004
- IC50 [11]: 249 nM
- IC50 [12]: > 370 nM
- IC50 [13]: 16.7 nM
- IC50 [14]: 498 nM
- IC50 [15]: 20 nM
- solubility [16]: 1.75 µM (≈ 0.591 µg/mL)
- fraction unbound [17]: < 0.0002
- CLint scaled [18]: 44.7 mL/min/kg
- half-life [18]: 38.9 min
- IC50 [19]: > 1110 nM

Compound: CN(c1ccccc1)c1nc(N)nc2[nH]c3cccc(Cl)c3c12 [AGN11]
- correlation between insoluble α-synuclein and locomotor speed ([20]; 5 mg/kg): uncoupled the inverse correlation between insoluble α-synuclein and locomotor speed
- hyperphosphorylation (pSer129) of insoluble α-synuclein, piriform cortex and amygdala ([20]; 5 mg/kg, six weeks, listed as AG161-47): modestly lowered; also recorded: reduced the hyperphosphorylation of insoluble α-synuclein
- effect on Lewy-related pathology ([20]; 10 mg/kg, six weeks): too high to exert beneficial effects
- bodyweight ([20]; daily tablets 5 or 10 mg/kg, six weeks, compared to placebo): No loss of bodyweight
- acetylated, detyrosinated, or tyrosinated α-tubulin levels in whole-fraction OB/AON ([20]; immunoblotting, six weeks): virtually no net effect
- α-synucleinopathic inclusion counts ([20]; piriform cortex sections, six weeks): does not affect α-synucleinopathic inclusion counts
- locomotor activity in an open arena ([20]; six weeks after fibril infusions): reduced locomotor activity
- other behavior measures (novel odor habituation, Y-maze, marble burying) ([20]; six weeks of daily tablets): no impact
- appearance of βIII-tubulin+ structures after cold methanol fixation [21]: did not alter the appearance of βIII-tubulin^+ structures
- CLint scaled [1]: 602 mL/min/kg
- half-life [1]: 10.1 min
- in vitro assembly of porcine brain tubulin [2]: accelerated and amplified the net in vitro assembly of tubulin
- IC50 ([3]; ATP Km app 85 μM): 888 nM
- fraction unbound [4]: 0.004
- Papp A→B [5]: 4.97 ×10⁻⁶ cm/s
- Papp B→A [5]: 4.16 ×10⁻⁶ cm/s
- IC50 [6]: 614 nM
- Kp ([7]; male, CD-1, mouse): 4.5
- Kp uu at 2 h ([7]; male, CD-1, mouse): 4.4
- C0 ([7]; male, CD-1, mouse, iv, 1 mg/kg): 529 ng/mL
- CIobs ([7]; male, CD-1, mouse, iv, 1 mg/kg): 120 mL/min/kg
- Vss_obs ([7]; male, CD-1, mouse, iv, 1 mg/kg): 2.41 L/kg
- half-life ([7]; male, CD-1, mouse, iv, 1 mg/kg): 19.4 min
- AUC(0-t) ([7]; male, CD-1, mouse, po, 1 mg/kg): 11 ng·h/mL
- F ([7]; male, CD-1, mouse, po, 1 mg/kg): 8.38%
- Tmax ([7]; male, CD-1, mouse, po, 1 mg/kg): 25 min
- half-life ([7]; male, CD-1, mouse, po, 1 mg/kg): 36 min
- clinical symptoms during pharmacokinetic work [7]: no abnormal clinical symptoms were observed
- IC50 ([8]; ATP Km app 12 μM): 7.96 nM
- IC50 [9]: 8.12 nM
- fragmented and condensed Hoechst+ nuclei ([22]; 8 μM, fibril-treated group): reduced fragmented and condensed Hoechst^+ nuclei
- impact on fragmented/condensed cell counts with nocodazole co-treatment ([22]; fibril groups, nocodazole 1 and 5 nM): prevented by both concentrations of nocodazole
- fraction unbound [10]: 0.0008
- IC50 [11]: 8.15 nM
- IC50 [12]: > 1110 nM
- IC50 [13]: > 370 nM
- IC50 [14]: 30.5 nM
- microtubule effects in HeLa cells [23]: elicited both stabilization and relaxation of microtubules
- IC50 [15]: 7.03 nM
- solubility [16]: 0.71 µM (≈ 0.23 µg/mL)
- fraction unbound [17]: 0.0022
- CLint scaled [18]: 45.6 mL/min/kg
- half-life [18]: 38.1 min
- IC50 [19]: > 1110 nM

Compound: Brc1c(Br)c(Br)c2n[nH]nc2c1Br [TBB, reference compound]
- IC50 ([14]; representative value, ATP bin 5 μM, read-out: IC50 (nM) of Std inhibitor, CSNK1A1 (CK1 alpha 1)): 12600 nM

Compound: COc1cc2ncnc(Nc3cccc(Cl)c3)c2cc1OC [Tyrphostin AG1478, reference compound]
- IC50 ([3]; representative value, ATP bin 75 μM, read-out: IC50 (nM) of Std inhibitor, FYN): 5300 nM
- IC50 ([8]; representative value, ATP bin 10 μM, read-out: IC50 (nM) of Std inhibitor, ABL1): 326 nM

Compound: COC(=O)Nc1nc2ccc(C(=O)c3cccs3)cc2[nH]1 [nocodazole]
- appearance of βIII-tubulin+ structures after cold methanol fixation [21]: neurotoxicity and severe beading of axonal microtubules
- acetylated (stable) α-tubulin levels [24]: raised the levels of acetylated (stable) α-tubulin
- number of viable Hoechst+ cells ([22]; fibrils, escalating AG161-47 up to 8 μM, nocodazole 1 and 5 nM, 10 days): no statistically significant changes
- toxicity to primary hippocampal cultures [22]: also found to be toxic

Compound: epothilone
- toxicity to primary hippocampal cultures [22]: toxic to primary hippocampal cultures at nanomolar concentrations; also recorded: also found to be toxic
